Among the data in patent publication US7109333B2, “Heterocyclic compounds” (SmithKline Beecham Corporation, priority 1998, dated 2006) are IC50 values, retold here.

Test [1] concerns HB4a r4.2 (HB4a transfected with human H-ras cDNA). Nature of the test: Methylene blue growth inhibition assay, HB4a ras. The settings on record: 72 h, HB4a r4.2, 3 days, read-out: Cell Proliferation HB4a ras, IC50. The format is cell-based. The method, then:
(§1) Human breast (BT474), head and neck (HN5) and gastric tumor (N87) cell lines were cultured in low glucose DMEM (Life Technologies 12320–032) containing 10% fetal bovine serum (FBS) at 37° C. in a humidified 10% CO2, 90% air incubator. The SV40 transformed human mammary epithelial cell line HB4a was transfected with either human H-ras cDNA (HB4a r4.2) or the human c-erbB2 cDNA (HB4a c5.2). The HB4a clones were cultured in RPMI containing 10% FBS, insulin (5 μg/ml), hydrocortisone (5 μg/ml), supplemented with the selection agent hygromycin B (50 μg/ml). Cells were harvested using trypsin/EDTA, counted using a haemocytometer, and plated in […] of the appropriate media, at the following densities, in a 96-well tissue culture plate (Falcon 3075): BT474 10,000 cells/well, HN5 3,000 cells/well, N87 10,000 cells/well, HB4a c5.2 3,000 cells/well, HB4a r4.2 3,000 cells/well. The next day, compounds were diluted in DMEM containing […] gentamicin, at twice the final required concentration, from 10 mM stock solutions in DMSO. […] of these dilutions were added to the […] of media currently on the cell plates. Medium containing 0.6% DMSO was added to control wells. Compounds diluted in DMEM were added to all cell lines, including the HB4a r4.2 and HB4a c5.2 cell lines. The final concentration of DMSO in all wells was 0.3%. Cells were incubated at 37° C., 10% CO2 for 3 days. Medium was removed by aspiration. Cell biomass was estimated by staining cells with 100 μl per well methylene blue (Sigma M9140, 0.5% in 50:50 ethanol:water), and incubation at room temperature for at least 30 minutes. Stain was removed, and the plates rinsed under a gentle stream of water, and air-dried. To release stain from the cells 100 μl of solubilization solution was added (1% N-lauroyl sarcosine, Sodium salt, Sigma L5125, in PBS), and plates were shaken gently for about 30 minutes. Optical density at 620 nm was measured on a microplate reader. Percent inhibition of cell growth was calculated relative to vehicle treated control wells. Concentration of compound that inhibits 50% of cell growth (IC50) was interpolated using nonlinear regression (Levenberg-Marquardt) and the equation, y=Vmax*(1−(x/(K+x)))+Y2, where “K” was equal to the IC50.

Test [2] has as its system N87 gastric tumor cell line. Description: Methylene blue growth inhibition assay, N87. The format is cell-based. As to conditions: Homo sapiens, 72 h; N87, 3 days; read-out: Cell Proliferation N87, IC50. Here is the method: as §1
The test system of test [3] is BT474 breast tumor cell line. Nature of the test: Methylene blue growth inhibition assay, BT474. The format is cell-based. As to conditions: Homo sapiens, BT-474, 72 h; BT474, 3 days; read-out: Cell Proliferation BT474, IC50. Here is the method:
as §1

The subject of test [4] is HN5 head and neck tumor cell line. Nature of the test: Methylene blue growth inhibition assay, HN5. The settings on record: Homo sapiens, 72 h; HN5, 3 days; read-out: Cell Proliferation HN5, IC50. The format is cell-based. Here is the method:
as §1

Test [5] concerns the target T1, c-erbB-2 (Homo sapiens, UniProt P04626).
T1 construct: baculovirus expressed, recombinant constructs of the intracellular domains of c-erbB-2 and c-erbB-4; made in house
Nature of the test: Substrate phosphorylation assay, erbB2, assay (b) (SPA, 33P-ATP). The format is biochemical. The settings on record: Tables 1A and 1B. From the text:
The substrate phosphorylation assays use baculovirus expressed, recombinant constructs of the intracellular domains of c-erbB-2 and c-erbB-4 that are constitutively active and EGFr isolated from solubilised A431 cell membranes. The method measures the ability of the isolated enzymes to catalyse the transfer of the g-phosphate from ATP onto tyrosine residues in a biotinylated synthetic peptide (Biotin-[…]. Substrate phosphorylation was detected following either of the following two procedures: a.) c-ErbB-2, c-ErbB4 or EGFr were incubated for 30 minutes, at room temperature, with 10 mM MnCl2, 10 mM ATP, 5 mM peptide, and test compound (diluted from a 5 mM stock in DMSO, final DMSO concentration is 2%) in 40 mM HEPES buffer, pH 7.4. The reaction was stopped by the addition of EDTA (final concentration 0.15 mM) and a sample was transferred to a streptavidin-coated 96-well plate. The plate was washed and the level of phosphotyrosine on the peptide was determined using a Europium-labelled antiphosphotyrosine antibody and quantified with a time-resolved fluorescence technique. b.) ErbB2 was incubated for 50 minutes at room temperature with 15 mM MnCl2, 2 mM ATP, 0.25 mCi [γ-^33P] ATP/well, 5 mM peptide substrate, and test compound (diluted from a 10 mM stock in DMSO, final DMSO concentration is 2%) in 50 mM MOPS pH 7.2. The reaction was terminated by the addition of […] of PBS containing 2.5 mg/ml streptavidin-coated SPA beads (Amersham Inc.), 50 mM ATP, 10 mM EDTA and 0.1% TX-100. The microtitre plates were sealed and SPA beads were allowed to settle for at least six hours. The SPA signal was measured using a Packard Topcount 96-well plate scintillation counter (Packard Instrument Co., Meriden, Conn.).

Test [6] relates to HB4a c5.2 (HB4a transfected with human c-erbB2 cDNA). Description: Methylene blue growth inhibition assay, HB4a erbB2. The format is cell-based. The settings on record: 72 h, HB4a c5.2, 3 days, read-out: Cell Proliferation HB4a erbB2, IC50. Here is the method: as §1

Some results are limits rather than exact numbers.

T1 sequence (P04626 676-1255 limits assumed): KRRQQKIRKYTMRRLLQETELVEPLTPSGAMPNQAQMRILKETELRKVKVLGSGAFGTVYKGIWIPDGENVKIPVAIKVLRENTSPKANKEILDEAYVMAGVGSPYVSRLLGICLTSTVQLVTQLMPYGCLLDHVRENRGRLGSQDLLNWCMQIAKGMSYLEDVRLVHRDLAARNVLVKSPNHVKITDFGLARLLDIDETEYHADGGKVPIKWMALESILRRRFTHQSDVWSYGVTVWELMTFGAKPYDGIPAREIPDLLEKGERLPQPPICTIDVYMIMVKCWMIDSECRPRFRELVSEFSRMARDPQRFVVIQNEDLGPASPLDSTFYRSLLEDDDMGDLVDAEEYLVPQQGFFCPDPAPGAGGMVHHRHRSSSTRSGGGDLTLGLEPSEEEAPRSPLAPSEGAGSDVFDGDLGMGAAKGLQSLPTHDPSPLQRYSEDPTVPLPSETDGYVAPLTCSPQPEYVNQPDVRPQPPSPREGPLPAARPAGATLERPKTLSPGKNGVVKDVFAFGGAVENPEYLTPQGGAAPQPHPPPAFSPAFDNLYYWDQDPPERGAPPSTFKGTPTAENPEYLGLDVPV

Consider `CS(=O)(=O)CCNCc1ccc(-c2ccc3ncnc(Nc4ccc(OCc5cccc(Br)c5)cc4)c3c2)o1` [Example 19, N-{4-[(3-bromobenzyl)oxy]phenyl}-6-[5-({[2-(methanesulphonyl)ethyl]amino}methyl)-2-furyl]-4-quinazolinamine], for which the IC50 is over 50 µM in test [1]; under 5 µM in test [2]; under 5 µM in test [3]; under 5 µM in test [4]; under 0.1 µM in test [5]; under 5 µM in test [6].

With `CS(=O)(=O)CCNCc1ccoc1-c1ccc2ncnc(Nc3ccc(OCc4ccccc4)cc3)c2c1` [Example 20, N-[4-(benzyloxy)phenyl]-6-[3-({[2-(methanesulphonyl)ethyl]amino}methyl)-2-furyl]-4-quinazolinamine], the IC50 in test [1] was over 50 µM; in test [2], under 5 µM; in test [3], under 5 µM; in test [4], 5 to 25 µM; in test [5], under 0.1 µM; in test [6] it was under 5 µM.

On to `CS(=O)(=O)CCNCc1nc(-c2ccc3ncnc(Nc4ccc5c(cnn5Cc5cccc(F)c5)c4)c3c2)cs1` [Example 21, N-[1-(3-fluorobenzyl)-1H-indazol-5-yl]-6-[2-({[2-(methanesulphonyl)ethyl]amino}methyl)-1,3-thiazol-4-yl]-4-quinazolinamine], for which the IC50 in test [1] is 5 to 25 µM; in test [2], under 5 µM; in test [3], under 5 µM; in test [4] it was under 5 µM; in test [5], under 0.1 µM; in test [6] it was under 5 µM.

On to `CS(=O)(=O)CCNCc1ccc(-c2ccc3ncnc(Nc4ccc(S(=O)(=O)c5ccccc5)cc4)c3c2)o1` [Example 22, 6-[5-({[2-(methanesulphonyl)ethyl]amino}methyl)-2-furyl]-N-[4-(benzenesulphonyl)phenyl]-4-quinazolinamine], for which the IC50 is 25 to 50 µM in test [1]; under 5 µM in test [2]; under 5 µM in test [3]; under 5 µM in test [4]; under 0.1 µM in test [5]; under 5 µM in test [6].

In the case of `CS(=O)(=O)CCNCc1nc(-c2ccc3ncnc(Nc4ccc(S(=O)(=O)c5ccccc5)cc4)c3c2)cs1` [Example 23, 6-[2-({[2-(methanesulphonyl)ethyl]amino}methyl)-1,3-thiazol-4-yl]-N-[4-(benzenesulphonyl)phenyl]-4-quinazolinamine], the IC50 was 25 to 50 µM in test [1]; under 5 µM in test [2]; under 5 µM in test [3]; under 5 µM in test [4]; under 0.1 µM in test [5]; under 5 µM in test [6].

As for `CS(=O)(=O)CCNCc1nc(-c2ccc3ncnc(Nc4ccc(OCc5cccc(C(F)(F)F)c5)cc4)c3c2)cs1` [Example 24, 6-[2-({[2-(methanesulphonyl)ethyl]amino}methyl)-1,3-thiazol-4-yl]-N-(4-{[3-(trifluoromethyl)benzyl]oxy}phenyl)-4-quinazolinamine], the IC50 in test [1] is over 50 µM; in test [2] it was 5 to 25 µM; in test [3], 5 to 25 µM; in test [4], under 5 µM; in test [5], under 0.1 µM; in test [6] it was 5 to 25 µM.

Consider `CS(=O)(=O)CCNCc1nc(-c2ccc3ncnc(Nc4ccc(OCc5cccc(F)c5)c(F)c4)c3c2)cs1` [Example 25, N-{3-fluoro-4-[(3-fluorobenzyl)oxy]phenyl}-6-[2-({[2-(methanesulphonyl)ethyl]amino}methyl)-1,3-thiazol-4-yl]-4-quinazolinamine], for which the IC50 in test [1] was over 50 µM; in test [2] it was under 5 µM; in test [3] it was under 5 µM; in test [4] it was under 5 µM; in test [5], under 0.1 µM; in test [6] it was under 5 µM.

For `CS(=O)(=O)CCNCc1nc(-c2ccc3ncnc(Nc4ccc5c(cnn5Cc5ccccc5)c4)c3c2)cs1` [Example 26, N-(1-benzyl-1H-indazol-5-yl)-6-[2-({[2-(methanesulphonyl)ethyl]amino}methyl)-1,3-thiazol-4-yl]-4-quinazolinamine], the IC50 in test [1] is 5 to 25 µM; in test [2], under 5 µM; in test [3], under 5 µM; in test [4], under 5 µM; in test [5] it was under 0.1 µM; in test [6], under 5 µM.

In the case of `CS(=O)(=O)CCNCc1ccc(-c2ccc3ncnc(Nc4ccc(OCc5ccccc5)c(F)c4)c3c2)o1` [Example 27], the IC50 in test [1] is 5 to 25 µM; in test [2] it was under 5 µM; in test [3], under 5 µM; in test [4], under 5 µM; in test [5] it was under 0.1 µM; in test [6], under 5 µM.

With `CS(=O)(=O)CCNCc1ccc(-c2ccc3ncnc(Nc4ccc(OCc5ccccc5)c(Cl)c4)c3c2)o1` [Example 28], the IC50 in test [1] was 25 to 50 µM; in test [2], under 5 µM; in test [3], under 5 µM; in test [4], under 5 µM; in test [5] it was under 0.1 µM; in test [6] it was under 5 µM.

Regarding `COc1cc2ncnc(Nc3ccc(S(=O)(=O)c4ccccc4)cc3)c2cc1-c1ccc(CNCCS(C)(=O)=O)o1` [Example 33, 6-[5-({[2-(Methanesulphonyl)ethyl]amino}methyl)-2-furyl]-7-methoxy-N-(4-benzenesulphonyl)phenyl-4-quinazolinamine], the IC50 was under 5 µM in test [1]; under 5 µM in test [2]; under 5 µM in test [3]; under 5 µM in test [4]; under 0.1 µM in test [5]; under 5 µM in test [6].

Consider `CS(=O)(=O)CCNCc1ccc(-c2cc3c(Nc4ccc(OCc5ccccc5)cc4)ncnc3cc2F)o1` [Example 34, N-[4-(Benzyloxy)phenyl]-7-fluoro-6-[5-({[2-(methanesulphonyl)ethyl]amino}methyl)-2-furyl]-4-quinazolinamine], for which the IC50 was over 50 µM in test [1]; under 5 µM in test [2]; under 5 µM in test [3]; under 5 µM in test [4]; under 0.1 µM in test [5]; under 5 µM in test [6].

`CS(=O)(=O)CCNCc1ccc(-c2cc3c(Nc4ccc5c(cnn5Cc5ccccc5)c4)ncnc3cc2F)o1` [Example 35]: the IC50 in test [1] was 25 to 50 µM; in test [2] it was under 5 µM; in test [3], under 5 µM; in test [4] it was under 5 µM; in test [5], under 0.1 µM; in test [6], under 5 µM.
